Data reported in PubChem BioAssay AID179 (DTP/NCI, 2004).
pEC50, pIC50: −log10 of the molar value. Calls of active or inactive are those of the source.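 The calls were made as follows: active = compounds giving half or more protection of infected cells from virus-caused growth loss, again on retest; inactive = the rest.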

System: CEM cells HIV-1 protection, formazan growth assay
Assay: NCI AIDS Antiviral Assay
Details: for pIC50: measured here: growth of uninfected CEM cells
How it was run: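 Category rules: moderately active means at least 50% protection on retest, and confirmed active means 100% protection reproducibly. The underlying data came from a formazan growth assay in HIV-1-infected CEM cells.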

Structure (SMILES)	pEC50	pIC50	outcome
Clc1cc2c(c3ncccc13)OCN(CCc1ccccc1)C2	< 3.70	6.02	
CCCCNc1cc2oc(=O)cc(C)c2cc1N	< 3.81	4.35	
C=C1[C@H]2C[C@H]3[C@@H]4N5C[C@]6(C)CCCC47C6[C@H]5CC3([C@@H]1O)[C@H]7[C@H]2O			inactive
CCN(CC)C(=O)c1cc(=O)c(C)c2oc3c(C)c(O)c(N)c(C(=O)N(CC)CC)c3nc1-2	< 3.70	3.96	
CC(=O)OC1C[C@](C)(O)/C=C/CC(C)/C=C/[C@@]2(C)CCC(C(C)(C)O)C12 (some centres not stated)			inactive
CO[C@H](C(=O)[C@@H](O)[C@@H](C)O)[C@@H]1Cc2cc3cc(OC4CC(OC5CC(O)C(O)C(C)O5)C(O)C(C)O4)c(C)c(O)c3c(O)c2C(=O)[C@H]1OC1CC(OC2CC(OC3CC(C)(O)C(O)C(C)O3)C(O)C(C)O2)C(O)C(C)O1 (some centres not stated)	< 7.52	< 7.52	
O=[N+]([O-])c1cccc2c(N3CC3)cnnc12			inactive
Cc1cccc(-c2cccc(COCc3cccc(-c4cccc(CO)n4)n3)n2)n1	< 4.00	4.36	
CCCc1cc(=O)oc2c3c(c4c(c12)OC(C)(C)CC4)O[C@H](C)C(C)[C@@H]3O (some centres not stated)	< 3.70	3.79	
CC(=O)NNc1nc(C)c(C(=O)/C=C/c2ccc(Cl)c(Cl)c2)s1	< 4.29	< 4.29	
O=C(Nc1ccc(Cl)c(Cl)c1)N1c2ccccc2Sc2ccccc21			inactive
CC(C)C(Sc1nc(-c2ccccc2)c(-c2ccccc2)[nH]1)C(=O)N/N=C/c1ccc([N+](=O)[O-])cc1 (configuration not stated)	< 4.84	< 4.84	
COc1ccc(C(=C[N+](=O)[O-])c2ccc(OC)cc2)cc1			inactive
Cc1nc(-n2nc(-c3ccccc3)cc2-c2ccccc2)sc1C(/C=C\c1ccc([N+](=O)[O-])cc1)=N/NC(=S)NN	< 4.49	< 4.49	
CS(=O)(=O)Sc1ccccc1C(=O)O	< 2.97	< 2.97	
NC(CCCCCC(N)C(=O)O)C(=O)O (configuration not stated)			inactive
COc1ccc(C(=O)[O][Sn]([c]2ccccc2)([c]2ccccc2)[c]2ccccc2)c(OC)c1OC	< 5.70	6.96	
COc1nc2n[nH]nc2c(=O)[nH]1			inactive
CCN=C(N)Nc1ccccc1	< 3.70	3.88	
C[n+]1c(-c2ccc(/C=N/NC(=O)c3ccc(C(=O)N/N=C/c4ccc(-c5cn6ccccc6[n+]5C)cc4)c(O)c3O)cc2)cn2ccccc21	5.08	5.06	
O=C1/C(=C/c2ccc(F)cc2)Cc2ccccc21	< 4.52	< 4.52	

Structure (SMILES)	pEC50	pIC50	outcome
CC(C)(C)NC(=O)C12C3C4C1C1C2C3C41I (configuration not stated)	< 4.00	< 4.00	
Cc1ccc2c(c1)[n+]([O-])c(N)n[n+]2[O-]	< 3.70	4.72	
CSc1snc2sc3c(Cl)nnnc3c12			inactive
COC(=O)c1ccccc1C1CN=NC12Cc1ccc(C)c(C)c1C2=O (configuration not stated)	< 3.70	4.43	
CCCCCCCCCCCCCCCCOP(=O)(O)Oc1ccc(/C=C\c2ccc(OP(=O)(O)OCCCCCCCCCCCCCCCC)cc2)cc1			inactive
Oc1c(CN2CCOCC2)ccc2ccccc12	< 3.70	3.72	
COc1cccc(N2C(=O)C3c4[nH]c5ccccc5c4C4c5ccccc5CCC4C3C2=O)c1 (configuration not stated)	< 4.00	< 4.00	
CC(=O)OC[C@]12[C@H](OC(C)=O)[C@H](OC(C)=O)[C@@H]3C(OC(C)=O)[C@@]14OC3(C)COC(=O)c1cccnc1CCC(C)C(=O)OC([C@H]4C)[C@H](O)[C@@H]2OC(=O)c1ccccc1 (some centres not stated)			inactive
CC(=O)NC1C(=O)N([C@H](COCc2ccccc2)c2ccccc2)[C@@H]1COC(C)(C)C (some centres not stated)	< 3.53	3.73	
CCC(C)C(CC)(C(=O)O)C(=O)O (configuration not stated)	< 2.88	3.42	
Nc1nccc(NCC2(CO)CC(CCc3ccccc3)C2)n1 (configuration not stated)	< 3.70	4.98	
CCOC(=O)C1=NN(c2ccccc2)C(=O)/C1=C\N1C(=O)/C(=C/c2cccc(O)c2)SC1=S	< 3.70	4.41	
CSc1nc2c3ccccc3ccn2c1C(=O)N/N=C/c1ccccc1	< 4.00	< 4.00	
O=C1CCCC/C(=C/c2ccccc2)N1			inactive
O=[N+]([O-])c1cc(Cl)cc2cc(Cl)cnc12	< 3.70	< 3.70	
O=C(O)c1ccc(CS(=O)(=O)c2ccc([N+](=O)[O-])cc2)cc1	< 4.65	< 4.65	
COc1cccc2c1C(=O)c1c(O)c3c(c(O)c1C2=O)C[C@@](O)(C(C)=O)CC3OC1CC(N=[N+]=[N-])C(OC)C(C)O1 (some centres not stated)			inactive
Cc1ccc2c(c1)C(=O)/C(=C\c1ccc(Cl)cc1)CCS2(=O)=O	< 3.70	5.78	
Cc1cc(S(=O)(=O)N2CCNNC2=O)c(S)cc1Cl	4.56	4.30	
Cc1ccc(C(=O)NC2CCCCC2)cc1N=NN(C)C	< 4.33	4.34	
O=C(O)CC(SSCc1ccccc1)C(=O)O (configuration not stated)	< 3.70	< 3.70	

Structure (SMILES)	pEC50	pIC50	outcome
Cc1ccc(NC(=O)CC(=O)n2nc(-c3ccccc3)c(N=Nc3ccc(Cl)cc3)c2-c2ccccc2)cc1	< 5.01	< 5.01	
CCOC(=O)/C(=C\c1ccc2ccccc2c1)P(=O)(OCC)OCC	< 3.73	5.27	
CC(C)=CCC1(c2ccccc2)Oc2cccnc2-n2cccc2C1=O (configuration not stated)	< 3.70	4.54	
CCCCN(CCCC)C(=S)S	< 3.70	< 3.70	
Clc1ccc(-n2nnc(C3=NCCCN3)c2-c2ccccc2)cc1	3.89	3.83	
CCN(CC)Cc1cc(Nc2c3ccccc3nc3c4ccccc4n(C)c23)cc(CN(CC)CC)c1O	< 3.81	5.51	
NC(=O)CCS(=O)(=O)O	< 3.70	< 3.70	
CCOC(=O)c1nc2ccc(C(F)(F)F)cc2nc1Oc1cc(OC)cc(OC)c1	< 3.70	< 3.70	
S=C1Cc2c(-c3ccccc3)cc(-c3cccc(Cl)c3)nc2-c2ccccc2N1			inactive
COC(=O)N1CCCCC(CCC#CC[Si](C)(C)C)C1=O (configuration not stated)	< 3.92	3.96	
Cc1ccc2c(c1)-c1nc(N)c(C#N)c(-c3ccc(Cl)cc3)c1CCS2(=O)=O	< 3.70	4.53	
NNC(=O)c1ccccc1NC(=O)/C(=C/c1ccccc1)NC(=O)c1ccccc1	< 3.70	4.06	
Cc1ccc(C)c2c1C1CCCCC3(OCCCO3)C21O (configuration not stated)	< 3.70	< 3.70	
NC(=S)N/N=C(/CC(=O)c1ccccc1)C(=O)Nc1ccc(Cl)c(Cl)c1	< 4.06	< 4.06	
CCC[CH2][Sn]1([CH2]CCC)[O]C(=O)c2cccc(C)c2[O]1			inactive
COC(=O)C(=O)C(C#N)c1cccc(O)c1C(=O)OC (configuration not stated)	< 4.44	< 4.44	
CN(C(=O)C1=CCC2(CC1)OCCO2)c1ccccc1I	< 3.70	< 3.70	
COc1ccccc1N=NC(C(=O)c1ccccc1)C(=O)c1ccccc1	< 4.28	6.29	
Cc1c(C(=O)CC(=O)C(=O)Nc2cc(Cl)ccc2Cl)[n+](=O)c2ccccc2n1[O-]	< 5.06	< 5.06	
NCCSSCC(N)C(=O)O (configuration not stated)	< 4.23	< 4.23	
O=S(=O)(c1ccc(Cl)cc1)c1ccccc1C1=NCCN1	< 3.70	< 3.70	
